Measurements taken from PubChem BioAssay AID2060909 (Molecular Pharmacology Branch, DTP, NCI, 2025).
pIC50: −log10 of the molar value.

Test system: 362531-283-R-J2-PDC complex spheroid viability
Assay: Anticancer human tumor 362531-283-R-J2-PDC patient-derived colon adenocarcinoma cell line growth inhibition [RAS]
Conditions: for pIC50: curve of first compound; for viability, T/C: stronger effect = lower value
Method in brief: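 Tumour cells grown as complex spheroids with HUVEC endothelial cells and mesenchymal stem cells, treated with RAS pathway inhibitor combinations. Each agent spans half-log steps from near clinical Cmax, or 10 microM where Cmax is unknown.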
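Further: spheroids exposed to the agents for 7 days before readout.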
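Wherever viability, T/C is given: luminescence viability as percent of DMSO vehicle control wells.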

Cc1nc(N2CCC3(CC2)COC(C)C3N)c(CO)nc1Sc1ccnc(N)c1Cl (centres undefined) + CCn1c(-c2cccnc2C(C)OC)c2c3cc(ccc31)N1CCOC(CC(NC(=O)C(C(C)C)N(C)C(=O)C3(F)CCN(C(=O)C#CC(C)(C)N(C)C)CC3)C(=O)N3CCCC(N3)C(=O)OCC(C)(C)C2)C1
pIC50 (second compound 0.000949 µM): < 5.00 | pIC50 (second compound 0.003 µM): < 5.00 | pIC50 (second compound 0.00949 µM): < 5.00 | pIC50 (second compound 0.03 µM): < 5.00 | pIC50 (second compound 0.0949 µM): < 5.00 | pIC50 (second compound 0.3 µM): < 5.00 | viability, T/C (second compound 0.000949 µM, first compound 0.0316 µM): 103% | viability, T/C (second compound 0.000949 µM, first compound 0.1 µM): 103% | viability, T/C (second compound 0.000949 µM, first compound 0.316 µM): 93% | viability, T/C (second compound 0.000949 µM, first compound 1 µM): 102% | viability, T/C (second compound 0.000949 µM, first compound 3.16 µM): 80.6% | viability, T/C (second compound 0.000949 µM, first compound 10 µM): 72% | viability, T/C (second compound 0.003 µM, first compound 0.0316 µM): 111% | viability, T/C (second compound 0.003 µM, first compound 0.1 µM): 103% | viability, T/C (second compound 0.003 µM, first compound 0.316 µM): 103% | viability, T/C (second compound 0.003 µM, first compound 1 µM): 86.7% | viability, T/C (second compound 0.003 µM, first compound 3.16 µM): 87.3% | viability, T/C (second compound 0.003 µM, first compound 10 µM): 71.1% | viability, T/C (second compound 0.00949 µM, first compound 0.0316 µM): 102% | viability, T/C (second compound 0.00949 µM, first compound 0.1 µM): 111% | viability, T/C (second compound 0.00949 µM, first compound 0.316 µM): 92.1% | viability, T/C (second compound 0.00949 µM, first compound 1 µM): 93.3% | viability, T/C (second compound 0.00949 µM, first compound 3.16 µM): 82.4% | viability, T/C (second compound 0.00949 µM, first compound 10 µM): 77.7% | viability, T/C (second compound 0.03 µM, first compound 0.0316 µM): 102% | viability, T/C (second compound 0.03 µM, first compound 0.1 µM): 108% | viability, T/C (second compound 0.03 µM, first compound 0.316 µM): 95.5% | viability, T/C (second compound 0.03 µM, first compound 1 µM): 89.9% | viability, T/C (second compound 0.03 µM, first compound 3.16 µM): 82.5% | viability, T/C (second compound 0.03 µM, first compound 10 µM): 66.4% | viability, T/C (second compound 0.0949 µM, first compound 0.0316 µM): 105% | viability, T/C (second compound 0.0949 µM, first compound 0.1 µM): 94.9% | viability, T/C (second compound 0.0949 µM, first compound 0.316 µM): 96.7% | viability, T/C (second compound 0.0949 µM, first compound 1 µM): 77.5% | viability, T/C (second compound 0.0949 µM, first compound 3.16 µM): 85.6% | viability, T/C (second compound 0.0949 µM, first compound 10 µM): 74.7% | viability, T/C (second compound 0.3 µM, first compound 0.0316 µM): 94.8% | viability, T/C (second compound 0.3 µM, first compound 0.1 µM): 117% | viability, T/C (second compound 0.3 µM, first compound 0.316 µM): 94.2% | viability, T/C (second compound 0.3 µM, first compound 1 µM): 87.4% | viability, T/C (second compound 0.3 µM, first compound 3.16 µM): 76.7% | viability, T/C (second compound 0.3 µM, first compound 10 µM): 64.9%

CCN1CCN(Cc2ccc(Nc3ncc(F)c(-c4cc(F)c5nc(C)n(C(C)C)c5c4)n3)nc2)CC1 + C=CC(=O)N1CCN(c2nc(OCC3CCCN3C)nc3c(F)c(-c4nc(N)cc(C)c4C(F)(F)F)c(Cl)cc23)C(C)C1
pIC50 (second compound 0.00316 µM): < 6.00 | pIC50 (second compound 0.01 µM): < 6.00 | pIC50 (second compound 0.0316 µM): < 6.00 | pIC50 (second compound 0.1 µM): < 6.00 | pIC50 (second compound 0.316 µM): < 6.00 | pIC50 (second compound 1 µM): < 6.00 | viability, T/C (second compound 0.00316 µM, first compound 0.00316 µM): 108% | viability, T/C (second compound 0.00316 µM, first compound 0.01 µM): 99.2% | viability, T/C (second compound 0.00316 µM, first compound 0.0316 µM): 106% | viability, T/C (second compound 0.00316 µM, first compound 0.1 µM): 76% | viability, T/C (second compound 0.00316 µM, first compound 0.316 µM): 66.9% | viability, T/C (second compound 0.00316 µM, first compound 1 µM): 80.2% | viability, T/C (second compound 0.01 µM, first compound 0.00316 µM): 93.5% | viability, T/C (second compound 0.01 µM, first compound 0.01 µM): 101% | viability, T/C (second compound 0.01 µM, first compound 0.0316 µM): 88.2% | viability, T/C (second compound 0.01 µM, first compound 0.1 µM): 78.3% | viability, T/C (second compound 0.01 µM, first compound 0.316 µM): 66.7% | viability, T/C (second compound 0.01 µM, first compound 1 µM): 71.4% | viability, T/C (second compound 0.0316 µM, first compound 0.00316 µM): 99.1% | viability, T/C (second compound 0.0316 µM, first compound 0.01 µM): 94.3% | viability, T/C (second compound 0.0316 µM, first compound 0.0316 µM): 96.7% | viability, T/C (second compound 0.0316 µM, first compound 0.1 µM): 68.3% | viability, T/C (second compound 0.0316 µM, first compound 0.316 µM): 66.9% | viability, T/C (second compound 0.0316 µM, first compound 1 µM): 100% | viability, T/C (second compound 0.1 µM, first compound 0.00316 µM): 102% | viability, T/C (second compound 0.1 µM, first compound 0.01 µM): 108% | viability, T/C (second compound 0.1 µM, first compound 0.0316 µM): 98.8% | viability, T/C (second compound 0.1 µM, first compound 0.1 µM): 70% | viability, T/C (second compound 0.1 µM, first compound 0.316 µM): 73.3% | viability, T/C (second compound 0.1 µM, first compound 1 µM): 82.5% | viability, T/C (second compound 0.316 µM, first compound 0.00316 µM): 114% | viability, T/C (second compound 0.316 µM, first compound 0.01 µM): 94.8% | viability, T/C (second compound 0.316 µM, first compound 0.0316 µM): 101% | viability, T/C (second compound 0.316 µM, first compound 0.1 µM): 73% | viability, T/C (second compound 0.316 µM, first compound 0.316 µM): 77.9% | viability, T/C (second compound 0.316 µM, first compound 1 µM): 81.1% | viability, T/C (second compound 1 µM, first compound 0.00316 µM): 102% | viability, T/C (second compound 1 µM, first compound 0.01 µM): 108% | viability, T/C (second compound 1 µM, first compound 0.0316 µM): 94.6% | viability, T/C (second compound 1 µM, first compound 0.1 µM): 70.8% | viability, T/C (second compound 1 µM, first compound 0.316 µM): 69.9% | viability, T/C (second compound 1 µM, first compound 1 µM): 72.9%
